From article PMC9967584 (2023)

Test system: Cocaine-targeting aptamer (DNA, aptamer) AGACAAGGAAAATCCTTCAATGAAGTGGGTCG
Test: square wave voltammetry, aptamer on gold microelectrode
Settings: PBS; MCH-passivated; non-coated and PSB-coated sensors same calibration, modified Langmuir fit, constant not given

binding: yes
SMILES: COC(=O)[C@H]1[C@@H](OC(=O)c2ccccc2)C[C@@H]2CC[C@H]1N2C
